Data published in US20130072506A1, “6,8-DISUBSTITUTED PURINE COMPOSITIONS” (priority 2011, published 2013).

Legend:
SKH-1 hairless mice [1] = experiment: Hairless mouse assay: epidermal bromodeoxyuridine (BrdU) staining; format: in vivo; conditions: epidermal BrdU staining after 3 weeks of topical treatment, 0.1% (tretinoin 0.05%)
Text: This study determined the effect of topical compound formulations on epidermal cell proliferation using bromodeoxyuridine as an immunohistochemical marker of cell proliferation. Histological examination of the treated and control skin were used to determine cutaneous effects of the topical compounds. Topical tretinoin 0.05% (Renova™) was used as a therapeutic control.
(§1) Experimental Design. 48 female SKH-1 hairless mice (5 weeks old, 20-25 grams, Charles River Laboratories, Wilmington, Mass.) are individually housed in filter-top cages, and acclimated for 5-7 days after delivery. The mice are divided into 8 treatment groups (n=6), including two different control groups (untreated control, vehicle control) and a therapeutic control (tretinoin 0.05% Renova™ cream). Cage cards are marked to indicate treatment groups 1-8. Water and mouse chow are provided ad libitum.
(§2) Topical Treatments. Beginning on Treatment Day 1, test products are applied topically each morning (Monday through Friday) after erythema evaluations for 3 weeks. Using a positive displacement pipette, 20 mg of each agent is applied to a 2 cm×2 cm area of the center midline of the back. The material was spread across the treatment area with the pipette tip.
Bromodeoxyuridine Injection. All animal groups are injected with bromodeoxyuridine (100 mg/kg) I.P. 4 hours after the final application. Animals are sacrificed by CO2 inhalation 3 hours later followed by cervical dislocation. The test sites are excised, and 6 mm punch biopsies are obtained from each treatment site, and from untreated controls. Biopsies are placed into labeled vials containing 4% neutral buffered formalin for paraffin embedding and anti-BrdU staining.
Bromodeoxyuridine Immunohistochemical Staining. Paraffin sections are cut to a […] thickness and stained using the BrdU Immuno-histochemistry kit (X1545K from Exalpha Biologicals, Inc.) and a standard staining protocol. The slides are weakly counterstained in Mayer's hematoxylin and scored under a light microscope for the number of BrdU-positive cells per mm of epidermis for each section. The data are expressed as mean BrdU-positive cells/mm for each treatment group. Differences in BrdU labeling in the treatment groups are statistically analyzed using the Students t-test. Representative photographs are taken of the histological sections of the BrdU-positive staining cells.

SKH-1 hairless mice [2] = experiment: Hairless mouse assay: skin moisture content; format: in vivo; conditions: compared with the vehicle
Text: Evaluation of cutaneous effects of new topical compounds in the hirless mouse assay. The purpose of this study was to evaluate new topical compounds for their safety and efficacy as topical skin anti-aging treatments. The hairless mouse model is a well established model for studying the treatments of photoaging. […] The present study was used to investigate a new class of anti-aging compounds in comparison to classical ones. […] Topical compounds and vehicle controls were be applied daily (Monday-Friday) for 3 weeks to the dorsal skin of hairless mice. At baseline (prior to the 1st treatment), and weekly, the dorsal skin was measured for: transepidermal water loss (TEWL); skin moisture content; and skin elasticity.
as §1
Skin Moisture Content & Elasticity. The measurements of skin moisture content and skin elasticity are important noninvasive methods used to characterize the effects of moisturizers and anti-wrinkle effects on skin. A DermaLab™ combination instrument were used to measure the skin moisture content and elasticity of the target skin sites at baseline and at weekly intervals. This instrument is equipped with dual probes which are placed on the skin surface and a quantitative measurement taken of the respective parameters and the measurements recorded on an integrated computer. Mean measurements was determined for each treatment group over time, and comparative statistics used to evaluate product effectiveness.
as §2

[3] = system: cytokinin-dependent tobacco callus; experiment: Growth of cytokinin-dependent tobacco callus (plant cell division); format: cell-based, Nicotiana tabacum L. cv. Wisconsin 38; conditions: for Activity (%): at concentration with highest activity, activity of kinetin set at 100%
Protocol: The effect on plant cell division. Cytokinin-dependent tobacco callus Nicotiana tabacum L. cv. Wisconsin 38 was maintained at 25° C. in darkness on modified MS medium, containing 4 μmol/l nicotinic acid, 2.4 μmol/l pyridoxine hydrochloride, 1.2 μmol/l thiamine, 26.6 μmol/l glycine, 1.37 μmol/l glutamine, 1.8 μmol/1 myo-inositol, 30 g/l of sucrose, 8 g/l of agar, 5.37 μmol/l NAA and 0.5 μmol/l BAP. Subcultivation was carried out every three weeks. Fourteen days before the bioassay, the callus tissue was transferred to the media without BAP. Biological activity was determined from the increase in fresh callus weight after four weeks of cultivation. Five replicates were prepared for each cytokinin concentration and the entire test was repeated twice. From the obtained data, the concentration with highest activity was selected for each compound tested. Relative activity at this concentration was calculated (see Table 4 below).
The cytokinins to be tested were dissolved in dimethylsulfoxide (DMSO) and the solution brought up to 10^−3M with distilled water.

excised wheat leaf tips = experiment: Senescence inhibition on winter wheat leaf segments (chlorophyll retention); format: in vivo, Triticum aestivum cv. Hereward; conditions: for Activity (%): at concentration with highest activity, activity of 10^−4 M kinetin set at 100%; for Concentration with highest activity: retention of chlorophyll in excised wheat leaf tips, 96 hours in the dark
Protocol: Senescence Inhibition by Novel Compounds Tested on Winter Wheat Leaf Segments. Seeds of winter wheat, Triticum aestivum cv. Hereward, were washed under running water for 24 hours and then sown on vermiculite soaked with Knop's solution. They were placed in the grown chamber at 25° C. with a 16/8 hours light period at […]·m^−2·s^−1. After 7 days, the first leaf was fully developed and the second leaf had started to grow. A tip section of the first leaf, approximately 35 mm long, was removed from 5 seedlings and trimmed slightly to a combined weight of 100 mg. The basal ends of the five leaf tips were placed in the wells of a microtiter polystyrene plate containing […] of a cytokinin solution each. The entire plate was inserted into a plastic box lined with paper tissues soaked in distilled water to prevent leaf sections from drying out. After 96 hours incubation in the dark at 25° C., the leaves were removed and chlorophyll extracted by heating at 80° C. for 10 min in 5 ml of 80% ethanol (v/v). The sample volume was then restored to 5 ml by the addition of 80% ethanol (v/v). The absorbance of the extract was recorded at 665 nm. In addition, chlorophyll extracts from fresh leaves and leaf tips incubated in deionized water were measured. The set up of the assay is shown on FIG. 1. From the obtained data, the concentration with highest activity was selected for each compound tested. Relative activity of the compound at this concentration was calculated (see Table 2 below). […] The values shown are means of five replicates and the whole experiment was repeated twice.
The compounds to be tested were dissolved in dimethylsulfoxide (DMSO) and the solution brought up to 10^−3 M with distilled water.

[4] = system: Human diploid fibroblast BJ; experiment: In vitro cytotoxic activity (metabolisation of MTT); format: cell-based; conditions: 72 hours, BJ passage 18-22
In short: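 BJ human diploid fibroblasts (passage 18-22) exposed 72 h to compounds at 0-200 μM (top dose lowered if solubility-limited), pentaplicate. MTT 0.5 mg/ml final added for 3 h, formazan dissolved in DMSO, absorbance at 570 nm. GI20 (20% drop in mitochondrial dehydrogenase activity) taken from dose-response curves.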

[5] = system: breast carcinoma cell line MCF-7; experiment: In vitro cytotoxic activity (metabolisation of Calcein AM); format: cell-based, human; conditions: Homo sapiens, MCF7 cells, 72 hours incubation, called GI50, read-out: Cell line tested/IC50 (μmol/L) MCF7
In short: (§3)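 Cells were pre-incubated 24 hours at 2.500-30.000 cells per well, then exposed to six 3-fold dilutions, usually from 100 μM top, for 72 hours at 37° C, 5% CO2, in triplicate. Calcein AM was added at 1 μg/ml final and fluorescence read after 1 hour; GI50 is the concentration halving Calcein AM conversion.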

[6] = system: normal diploid fibroblasts BJ; experiment: as above; format: cell-based, human; conditions: Homo sapiens, BJ cells, 72 hours incubation, called GI50, read-out: Cell line tested/IC50 (μmol/L) BJ
In short: as §3

[7] = system: T-lymphoblastic leukemia cell line CEM; experiment: as above; format: cell-based, human; conditions: Homo sapiens, CCRF-CEM, CEM cells, 72 hours incubation, called GI50, read-out: Cell line tested/IC50 (μmol/L) CEM
In short: as §3

[8] = system: osteosarcoma cell line HOS; experiment: as above; format: cell-based, human; conditions: Homo sapiens, HOS cells, 72 hours incubation, called GI50, read-out: Cell line tested/IC50 (μmol/L) HOS
In short: as §3

[9] = system: erytroid leukemia cell line K-562; experiment: as above; format: cell-based, human; conditions: Homo sapiens, K562, K-562 cells, 72 hours incubation, called GI50, read-out: Cell line tested/IC50 (μmol/L) K-562
In short: as §3

melanoma cell line G-361 = experiment: as above; format: cell-based, human; conditions: Homo sapiens, G-361 cells, 72 hours incubation, called GI50, read-out: Cell line tested/IC50 (μmol/L) G-361
In short: as §3

[10] = system: Amaranthus caudatus cotyledon/hypocotyl explants; experiment: Amaranthus bioassay (betacyanin content); format: in vivo, Amaranthus caudatus var. atropurpurea; conditions: for Activity (%): at concentration with highest activity, activity of kinetin set at 100%; for Concentration with highest activity: betacyanin content, 48 hours in darkness
Protocol: Testing of Novel Compounds in Amaranthus bioassay. Standard Amaranthus bioassay was performed with several modifications. The seeds of Amaranthus caudatus var. atropurpurea were surface-sterilized in 10% N-chlorobenzene sulfonamide (w/v) for 10 min and washed 5 times in deionized water. They were placed in 14 cm Petri dishes containing paper tissues saturated with deionized water. After 72 hours of cultivation at 25° C. in darkness, the roots of the seedlings were cut off. The explants, consisting of two cotyledons and hypocotyls, were placed in 5 cm Petri dishes on two layers of filter paper soaked in 1 ml of incubation medium containing 10 μmol Na2HPO4—KH2PO4, pH 6.8, 5 μmol tyrosine and the cytokinin to be tested. There were 20 explants per dish. The procedure was carried out under a green safe light in a darkroom. After a 48 hours of incubation at 25° C. in darkness, betacyanin was extracted by freezing the explants in 4 ml 3.33 μM acetic acid. The concentration of betacyanin was determined by comparing the absorbance at 537 nm and 620 nm as follows: DA=A537nm−A620nm. From the obtained data, the concentration with highest activity was selected for each compound tested. Relative activity of the compound at this concentration was calculated (see Table 3 below). […] The values shown in Table 3 are means of five replicates and the entire test was repeated twice.
The cytokinins to be tested were dissolved in dimethylsulfoxide (DMSO) and the solution brought up to 10^−3 M with distilled water.

melting point [°C] | Compound | Activity (%) [3] [%] | Activity (%) (excised wheat leaf tips) | Concentration with highest activity (excised wheat leaf tips) | Activity (%) [10] [%] | Concentration with highest activity [10] | other results
– | c1coc(CNc2ncnc3c2ncn3C2CCCCO2)c1 (stereo not drawn) [6-Furfurylamino-9-(2-tetrahydropyranyl)purine] | – | – | – | – | – | Mean Nuclei Stained (SKH-1 hairless mice [1]): 5.3 ± 4.2; average moisture content (SKH-1 hairless mice [2]): higher than that of the vehicle
– | Brc1nc2ncnc(NCc3ccccc3)c2[nH]1 [Compound 2, 6-Benzylamino-8-bromopurine] | 174.83 | 144.76 (±6) % | 10^−4 mol/l | – | – | GI20 [4]: >50 µM; IC50 [5]: > 50 µmol/L; IC50 [6]: > 50 µmol/L; IC50 [7]: > 50 µmol/L; IC50 [8]: > 50 µmol/L; IC50 [9]: > 50 µmol/L; IC50 (melanoma cell line G-361): > 50 µmol/L
– | Clc1nc2ncnc(NCc3ccccc3)c2[nH]1 [Compound 30, 6-Benzylamino-8-chloropurine] | 157.51 | 124.81 (±1) % | 10^−4 mol/l | – | – | GI20 [4]: >100 µM
217 to 219 | CN(C)c1nc2ncnc(NCc3ccccc3)c2[nH]1 [Compound 62, 6-Benzylamino-8-dimethylaminopurine] | 165.64 | 106.13 (±1) % | 10^−4 mol/l | – | – | –
267 to 269 | Sc1nc2ncnc(NCc3ccccc3)c2[nH]1 [Compound 138, 6-Benzylamino-8-sulphanylpurine] | 156.66 | 140.45 (±3) % | 10^−4 mol/l | 111.25 | 10^−4 mol/l | –
181 to 185 | CCOC(=O)c1nc2ncnc(NCc3ccccc3)c2[nH]1 [Compound 195, 6-Benzylamino-8-ethoxycarbonylpurine] | – | 122.06 (±2) % | 10^−4 mol/l | 122.55 | 10^−4 mol/l | –
– | C/C(=C\CNc1ncnc2[nH]cnc12)CO [Zeatin] | – | – | – | – | – | Mean Nuclei Stained (SKH-1 hairless mice [1]): 3.5 ± 3.4 mm; average moisture content (SKH-1 hairless mice [2]): higher than that of the vehicle
– | c1coc(CNc2ncnc3[nH]cnc23)c1 [kinetin, reference compound] | 100 | 100% | 10^−4 mol/l | 100 | 10^−5 mol/l | range of the optimal concentration ([3]; tobacco callus growth): sharp concentration optimum
